Read-outs that look alike come from different tables or passages of the source. Marks after values point to notes of the source that are not given here.

The test system of series [1] is AAMU-Ab. Nature of the series: Competitive antigen ELISA, cross-reactivity of AAMU-Ab. The following applies: for % Cross-Reaction AAMU-Ab: competitive antigen ELISA, 0 = absence of inhibition or inhibition no higher than 40% at 5 × 10^−3 M. In kind it is binding, rabbit. The procedure: (§1) Buffers and water without additives are filtered through millipore filters and kept for 1 week. BSA, antibodies, Tween™ 20 and horse radish peroxidase conjugates are added to these buffers and water just prior to use. Urine samples are usually collected 4 hours after drinking a cup of coffee (instant or brewed with approximately 100 mg of caffeine per cup) and stored at −80° C. The urine samples are diluted 10 times with sodium phosphate buffer (620 mosm, pH 7.50) and are subsequently diluted with water to give concentrations of AAMU and 1X no higher than 3×10^−6 M in the ELISA. All the pipettings are done with an eight-channel pipette, except those of the antibody and sample solutions. Starting with the last well, 100 μL of a carbonate buffer (100 mM, pH 9.6) containing 2.5 μg mL-^1 antibodies are added to each well. After 90 min. at room temperature, the wells are washed three times with […] of TPB: isotonic sodium phosphate buffer (310 mosm, pH 7.50) containing 0.05% Tween™ 20.
(§2) After the initial wash, unoccupied sites are blocked by incubation for 90 min. at room temperature with 100 μL TBP containing 3% BSA. The wells are washed four times with 100 μL TPB. […] The microplate is gently shaken with an orbital shaker at room temperature for 3-4 hours. The wells are washed three times with 100 μL TPB containing 1% BSA and three times with water containing 0.05% Tween™ 20. To the washed plate is added 150 μL of a substrate buffer composed of citric acid (25 mM) and sodium phosphate dibasic buffer (50 mM, pH 5.0) containing 0.06% hydrogen peroxide and 0.04% o-phenylenediamine hydrochloride.
(§3) Buffers and water without additives were filtered through millipore filters and kept for 1 week. BSA, antibodies, Tween™ 20 and horse radish peroxidase conjugates were added to these buffers and water just prior to use. Urine samples were usually collected 4 hours after drinking a cup of coffee (instant or brewed with approximately 100 mg of caffeine per cup) and stored at −80° C. They were diluted 10 times with sodium phosphate buffer (620 mosm, pH 7.50) and were subsequently diluted with water to give concentrations of AAMU and 1X no higher than 3×10^−6 M in the ELISA. All the pipettings were done with an eight-channel pipette, except those of the antibody and sample solutions. Starting with the last well, 100 μL of a carbonate buffer (100 mM, pH 9.6) containing 2.5 μg mL-^1 antibodies was pipetted. After 90 min. at room temperature, the wells were washed three times with 100 μL of TPB: isotonic sodium phosphate buffer (310 mosm, pH 7.50) containing 0.05% Tween™ 20.
(§4) After the initial wash, unoccupied sites were blocked by incubation for 90 min. at room temperature with 100 μL TBP containing 3% BSA. The wells were washed four times with 100 μL TPB. […] The microplate was gently shaken with an orbital shaker at room temperature for 3-4 hours. The wells were washed three times with 100 μL with TPB containing 1% BSA and three times with water containing 0.05% Tween™ 20. To the washed plate was added 150 μL of a substrate buffer composed of citric acid (25 mM) and sodium phosphate dibasic buffer (50 mM, pH 5.0) containing 0.06% hydrogen peroxide and 0.04% o-phenylenediamine hydrochloride. After 20 min. at room temperature with shaking, the reaction was stopped with 50 μL of 2.5 N HCl.
(§5) The cross reactivities of AAMU-Ab and 1X-Ab were tested using a wide variety of caffeine metabolites and structural analogs (Table 2 below).

In series [2] the test system is 1X-Ab. The experiment in a line: Competitive antigen ELISA, cross-reactivity of 1X-Ab. The following applies: for % Cross-Reaction 1X-Ab: competitive antigen ELISA, 0 = absence of inhibition or inhibition no higher than 40% at 5 × 10^−3 M. In kind it is binding, rabbit. The procedure:
as §1, §2, §3, §4, §5
Background: An ELISA detects its analyte on a solid surface through an enzyme-linked reagent.

For series [3] the following is noted: cited from earlier work.
The conditions of series [4]: cited from earlier work. This is another data set of the same source.
The conditions of series [5]: cited from earlier work. The source holds these as a separate data set.

As to `Cc1nc2[nH]c(=O)[nH]c(=O)c2[nH]1` [8-Methyl Xanthine], the “% Cross-Reaction AAMU-Ab” value in series [1] stood at 0%. Besides, the “% Cross-Reaction 1X-Ab” value in series [2] is reported as 0%.
As to `CC(=O)Nc1c(N)n(C)c(=O)n(C)c1=O` [5-Acetamino-6-amino-1,3-dimethyluracil], the “% Cross-Reaction AAMU-Ab” value in series [1] was found to be 0%. In addition, the “% Cross-Reaction 1X-Ab” value in series [2] is 0%.
For the molecule `O=c1cc[nH]c(=O)[nH]1` [Uracil], in series [1], the “% Cross-Reaction AAMU-Ab” value is reported as 0%. The “% Cross-Reaction 1X-Ab” value in series [2] was 0%.
For the molecule `CC(=O)Nc1c(N)n(C)c(=O)[nH]c1=O` [5-Acetamino-6-amino-1-methyluracil], the “% Cross-Reaction AAMU-Ab” value in series [1] worked out at 100%. Besides, in series [1] (read-out: concentration required for 50% inhibition in the competitive antigen ELISA, AAMU-Ab), the IC50 was determined as 1.5 µM. For the same molecule, in series [2], the “% Cross-Reaction 1X-Ab” value amounted to 0%.
Take `Cn1c(=O)c2c(ncn2C)n(C)c1=O` [1,3,7-Trimethyl Xanthine (Caffeine), 1,3,7-Trimethyl Xanthine]: in series [1], the “% Cross-Reaction AAMU-Ab” value came to 0%. Further, in series [2], the “% Cross-Reaction 1X-Ab” value was found to be 0%.
Take `Cn1c(=O)[nH]c2ncn(C)c2c1=O` [1,7-Dimethyl Xanthine (Paraxanthine), 1,7-Dimethyl Xanthine]: the “% Cross-Reaction AAMU-Ab” value in series [1] is listed as 0%. Further, in series [2], the “% Cross-Reaction 1X-Ab” value is 0.5%.
For the molecule `Cn1c(=O)[nH]c2nc[nH]c2c1=O` [1-Methyl Xanthine (1X), 1-Methyl Xanthine], in series [1], the “% Cross-Reaction AAMU-Ab” value came out at 0%. For the same molecule, in series [2], the “% Cross-Reaction 1X-Ab” value was 100%. Moreover, the IC50 in series [2] (read-out: concentration required for 50% inhibition in the competitive antigen ELISA, 1X-Ab) was 10 µM.
For the molecule `Cn1cnc2[nH]c(=O)[nH]c(=O)c21` [7-Methyl Xanthine], the “% Cross-Reaction AAMU-Ab” value in series [1] stood at 0%. Further, the “% Cross-Reaction 1X-Ab” value in series [2] stood at 0%.
As to `Nc1ccc(S(=O)(=O)c2ccc(N)cc2)cc1` [dapsone], the entries for the “adverse reactions to dapsone” value in series [3] (fast acetylators) and in series [3] (slow acetylators) were 17% and 46%, respectively.
For the molecule `Cn1c(=O)[nH]c2[nH]c(=O)n(C)c2c1=O` [1,7-Dimethyluric acid], in series [1], the “% Cross-Reaction AAMU-Ab” value was determined as 0%. The “% Cross-Reaction 1X-Ab” value in series [2] was found to be 0%.
Consider `CC(=O)Nc1c(N)[nH]c(=O)[nH]c1=O` [5-Acetamino-6-amino-uracil], for which the “% Cross-Reaction AAMU-Ab” value in series [1] was 0.6%. For the same molecule, in series [2], the “% Cross-Reaction 1X-Ab” value worked out at 0%.
`COc1ccc2c(c1)[C@]13CCCC[C@@H]1[C@H](C2)N(C)CC3` [Dextromethorphan]: the “mean performance ±SE” value in series [4] (EMs (extensive metabolizers)) was 95±0.5%; in series [4] (PMs (poor metabolizers)) it was 86±6%.
In the case of `Cn1cnc2c1c(=O)[nH]c(=O)n2C` [3,7-Dimethyl Xanthine (Theobromine), 3,7-Dimethyl Xanthine], the “% Cross-Reaction AAMU-Ab” value in series [1] amounted to 0%. Moreover, the “% Cross-Reaction 1X-Ab” value in series [2] amounted to 0%.
As for `Nc1nc2nc[nH]c2c(=O)[nH]1` [Guanine], the “% Cross-Reaction AAMU-Ab” value in series [1] is recorded as 0%. Moreover, the “% Cross-Reaction 1X-Ab” value in series [2] is recorded as 0%.
As for `NC(=O)c1cccnc1` [Nicotinamide], the effect on lipoproteins entry in series [5] (doses similar to those of nicotinic acid) is “does not have a significant effect on lipoproteins”.
Take `O=c1[nH]cnc2nc[nH]c12` [Hypoxanthine]: the “% Cross-Reaction AAMU-Ab” value in series [1] was 0%. Further, the “% Cross-Reaction 1X-Ab” value in series [2] was 0%.
Take `O=C(O)c1cccnc1` [niacin, nicotinic acid]: in series [5] (1000 to 1500 mg per day), the LDL cholesterol reduction result is “about 15%” and the “reduction of triglyceride levels” value is “up to 30%”. Also, in series [5] (2000 to 4000 mg per day), the LDL cholesterol-lowering effect is about 25%, the “increase in HDL cholesterol level” value is “up to 30%” and the “reduction of triglyceride levels” value is “up to 50%”. In series [5] (low dosages (<500 mg per day)), the effect on lipoproteins result is on record as “little predictable effect”.
As to `Cn1c(=O)c2[nH]cnc2n(C)c1=O` [1,3-Dimethyl Xanthine (Theophylline), 1,3-Dimethyl Xanthine], in series [1], the “% Cross-Reaction AAMU-Ab” value stood at 0%. Further, in series [2], the “% Cross-Reaction 1X-Ab” value is 0.2%.
Turning to `O=c1[nH]c(=O)c2[nH]cnc2[nH]1` [Xanthine], the “% Cross-Reaction AAMU-Ab” value in series [1] was 0^a %. Further, the “% Cross-Reaction 1X-Ab” value in series [2] is on record as 0%.
Turning to `Cn1c(=O)[nH]c2[nH]c(=O)[nH]c2c1=O` [1-Methyluric acid], the “% Cross-Reaction AAMU-Ab” value in series [1] came out at 0%. Besides, the “% Cross-Reaction 1X-Ab” value in series [2] is listed as 11%.
The corresponding values for `Cn1c(=O)[nH]c(=O)c2[nH]cnc21` [3-Methyl Xanthine] are 0% and 0%.
The matching figures for `O=c1[nH]c(=O)c2[nH]c(=O)[nH]c2[nH]1` [Uric acid]: 0% and 0%.

The values are drawn from patent US20030053950A1, “Individualization of therapy with hyperlipidemia agents” (McGill University, priority 2001, published 2003).
